# Assay results taken from patent US11452718B2 (AVALYN PHARMA INC., priority 2012, dated 2022).
# Like-named read-outs stand apart in the source and are kept apart here.
# Tests used:
# [1] = Extended-duration intratracheal and oral pharmacokinetic study; assay type: in vivo, Wistar rats
# Procedure: Previous intratracheal aerosol delivery (see Example 6) was performed as a single bolus instillation just above the first bifurcation of the lung. For in vivo efficacy studies, an attempt was made to mimic tidal inhaled breathing by splitting the dose into equal parts and administering as before, but over a 2 minute period. […] Doses were prepared in 0.45% sodium chloride solution and were administered as described in Table 21.
# Plasma samples and entire lungs were taken at pre-dose, 2, 4, 6, 10, 30, 60 and 120 minutes post dosing. Materials were extracted and pirfenidone quantitated as mcg/mL plasma and μg/gram lung tissue.
# [2] = Bleomycin model of pulmonary fibrosis: right lung hydroxyproline content, left lung fibrosis score; assay type: in vivo, Wistar rats; conditions: Wistar, rat, plasma, read-out: Plasma AUCO-2 hrs
# Procedure: (§1) To compare anti-fibrotic efficacy between extended-duration intratracheal, direct-lung aerosol administration and oral gavage, the bleomycin model of pulmonary fibrosis was performed. Doses for this study were selected based upon pharmacokinetic parameters obtained in Table 22 (from Example 8). Briefly, Wistar rats (175-225 grams) were administered bleomycin by the intratracheal route using a Penn Century MicroSprayer® catheter. On the seventh day following bleomycin exposure, animals initiated treatment with either saline or pirfenidone. Animals were dosed once a day on days 7 through 28, and euthanized on day 29. Pirfenidone was administered either intratracheally using Penn Century MicroSprayer catheter or by oral gavage. Sham and bleomycin control groups received either no treatment or intratracheal saline by Penn Century MicroSprayer catheter. While dosing more frequently (or less frequently) may improve the observed effects, anesthesia required for intratracheal administration reduced animal weight gain (reduced food intake) and, thus limited dosing to once a day for this study. Because anesthesia reduced weight gain, all study animals (intratracheal, oral and control) received once-a-day isoflurane using the same technique and duration. Twelve animals were enrolled into each dosing group. […] Oral gavage was administered in a single 300 mcL volume. Due to technical restrictions, instead of the mg/kg dose being equally split between six 50 mcL administrations over 2 minutes, intratracheal administration was performed with three equal 50 mcL volumes administered every 40 seconds over the same period. For dose selection, data from Table 22 was extrapolated. On day 29, animals were euthanized. Right lungs were extracted and measured for hydroxyproline content, while left lungs were subjected to histology. Histological sections were stained with picrosirius red and scored for lung tissue fibrosis. Twenty random photographs of each stained lung tissue section were taken, blinded and scored by an independent review panel. Observations were pooled for analysis. […] Doses selected for this study targeted critical pharmacokinetic parameters from the comparator oral route (matching lung tissue Cmax or plasma AUC). These targets were selected from a pharmacokinetic study wherein lung tissue and plasma were collected and pirfenidone levels were compared. In these studies, lung tissue Cmax following intratracheal administration was always the first collected time point. It is important to consider that the duration of time required to collect this first lung tissue may not accurately capture the true lung Cmax. […] It was this pharmacokinetic point that the above Cmax for dosing was selected. If it was possible to collect lung tissue earlier, the Cmax may be higher. As the Penn Century MicroSprayer catheter delivers nearly the entire loaded dose, the possible delivered Cmax in these studies may be higher. […] In this study, we divided the dose into thirds.
# [3] = test system: bleomycin model of pulmonary fibrosis; experiment: as above; assay type: in vivo, Wistar rats; conditions: for Average Hydroxyproline, difference from bleomycin control: sham-subtracted
# Procedure: as §1
# [4] = Rubino et al., cited from earlier work
# CYP1A2 = biological target: T1, CYP1A2 (Homo sapiens, UniProt P05177); conditions: hepatic microsomes; cited from earlier work
# T1 construct: In vitro metabolism studies with hepatic microsomes; from tissue; host or cells: hepatic microsomes
# [5] = Intravenous push of pirfenidone to a mouse: plasma and lung levels; assay type: in vivo; conditions: 40 mg/kg intravenous dose; blood about 40% of wet lung weight
# Procedure: Exemplary Lung Tissue Delivery Assumptions: • 1. The total wet weight of the adult human lung is about 685 to 1,050 grams (for calculations, conservatively about […]); • 2. The adult human lung blood volume is about 450 mL; • 3. The tissue weight of the adult human lung is conservatively 1,050 grams wet weight minus 450 mL blood weight (assuming density of 1.0), equals 600 grams; • 4. […] The inhaled route of administration is dependent upon a respirable delivered dose (RDD). The RDD is the fraction of drug inhaled in aerosol particles less than 5 microns in diameter; • 7. RDD of typical dry powder, liquid nebulization or meter-dose inhalation devices ranges from 10% to 70%. Higher and lower efficiency devices with RDDs greater than 70% and less than 10% also exist; • 8. […] From the above observations and calculations, the lower limit of efficacy in lung tissue is 8 mcg/gram; and • 10.
# [6] = intratracheal aerosol 2.5 mg/kg, extended-duration (2 minutes)
# [7] = intratracheal aerosol 5 mg/kg, extended-duration (2 minutes)
# [8] = intratracheal aerosol 10 mg/kg, extended-duration (2 minutes)
# T1 sequence (P05177 whole entry): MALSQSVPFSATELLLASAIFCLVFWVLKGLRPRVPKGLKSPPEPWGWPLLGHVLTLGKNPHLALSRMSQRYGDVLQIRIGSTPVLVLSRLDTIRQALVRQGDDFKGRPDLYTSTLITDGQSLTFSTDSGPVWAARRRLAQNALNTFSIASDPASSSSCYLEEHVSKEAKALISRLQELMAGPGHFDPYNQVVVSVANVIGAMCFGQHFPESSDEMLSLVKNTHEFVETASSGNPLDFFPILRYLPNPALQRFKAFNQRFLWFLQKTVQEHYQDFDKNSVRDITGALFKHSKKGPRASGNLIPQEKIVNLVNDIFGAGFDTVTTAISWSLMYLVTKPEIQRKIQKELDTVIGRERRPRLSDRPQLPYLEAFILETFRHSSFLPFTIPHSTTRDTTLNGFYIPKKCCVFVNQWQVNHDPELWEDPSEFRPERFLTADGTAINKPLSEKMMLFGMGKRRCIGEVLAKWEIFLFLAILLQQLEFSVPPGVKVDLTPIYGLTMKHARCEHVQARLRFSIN
structure (smiles),measurement,setting,value
"Cc1ccc(=O)n(-c2ccccc2)c1 [pirfenidone, 5-methyl-1-phenyl-2-(1H)-pyridone]",adverse events,[1]; extended-duration intratracheal aerosol or oral gavage,No adverse events were noted
same,Lung Tissue AUC(0-2 hr),[1]; [6],3.5 µg·h/g
same,Lung Tissue Cmax,[1]; [6],14.4 μg/gram
same,Lung Tissue AUC(0-2 hr),[1]; [7],6.6 µg·h/g
same,Lung Tissue Cmax,[1]; [7],27.9 μg/gram
same,Lung Tissue AUC(0-2 hr),[1]; [8],14.5 µg·h/g
same,Lung Tissue Cmax,[1]; [8],61.1 μg/gram
same,Lung Tissue AUC(0-2 hr),[1]; oral gavage 10 mg/kg,4.9 µg·h/g
same,Lung Tissue Cmax,[1]; oral gavage 10 mg/kg,3.5 μg/gram
same,Lung Tissue AUC(0-2 hr),[1]; oral gavage 30 mg/kg,13.5 µg·h/g
same,Lung Tissue Cmax,[1]; oral gavage 30 mg/kg,9.8 μg/gram
same,Lung Tissue AUC(0-2 hr),[1]; oral gavage 100 mg/kg,27.9 µg·h/g
same,Lung Tissue Cmax,[1]; oral gavage 100 mg/kg,33.6 μg/gram
same,AUC,"[2]; inhaled or intranasal, Bleomycin + IT 0.9 mg/kg",3000 ng·h/mL
same,AUC,"[2]; inhaled or intranasal, Bleomycin + IT 3.0 mg/kg",7700 ng·h/mL
same,AUC,"[2]; inhaled or intranasal, Bleomycin + IT 6.4 mg/kg",16500 ng·h/mL
same,AUC,[2]; Bleomycin + PO 30 mg/kg,16600 ng·h/mL
same,AUC,[2]; Bleomycin + PO 100 mg/kg,29600 ng·h/mL
same,possible lung tissue Cmax,[3]; 0.9 mg/kg intratracheal dose divided into thirds,about 50 mcg/gram lung tissue
same,possible lung tissue Cmax,"[3]; 0.9 mg/kg intratracheal dose to a 250 gram rat, lung about 1.5 grams, whole dose",≤ 150 mcg/gram
same,anti-fibrotic efficacy,"[3]; 3.0 mg/kg intratracheal, direct lung aerosol rat dose",no observed pirfenidone efficacy
same,Lung Tissue AUC0-2 hrs,[3]; Bleomycin + IT 0.9 mg/kg,2.6 µg·h/g
same,Lung Tissue Cmax,[3]; Bleomycin + IT 0.9 mg/kg,11.6 µg/g
same,"Average Hydroxyproline, difference from bleomycin control",[3]; Bleomycin + IT 0.9 mg/kg,"−0.70*, **** mg/rightlung"
same,Lung Tissue AUC0-2 hrs,[3]; Bleomycin + IT 3.0 mg/kg,7.3 µg·h/g
same,Lung Tissue Cmax,[3]; Bleomycin + IT 3.0 mg/kg,33.5 µg/g
same,"Average Hydroxyproline, difference from bleomycin control",[3]; Bleomycin + IT 3.0 mg/kg,"−0.02**, **** mg/rightlung"
same,Lung Tissue AUC0-2 hrs,[3]; Bleomycin + IT 6.4 mg/kg,15.5 µg·h/g
same,Lung Tissue Cmax,[3]; Bleomycin + IT 6.4 mg/kg,71.5 µg/g
same,"Average Hydroxyproline, right lung","[3]; Bleomycin + IT 6.4 mg/kg once a day, days 7 through 28",3.50 mg/right lung
same,"Average Hydroxyproline, difference from bleomycin control",[3]; Bleomycin + IT 6.4 mg/kg,"−0.08***, **** mg/rightlung"
same,Lung Tissue AUC0-2 hrs,[3]; Bleomycin + PO 30 mg/kg,18.2 µg·h/g
same,Lung Tissue Cmax,[3]; Bleomycin + PO 30 mg/kg,11.8 µg/g
same,Lung Tissue AUC0-2 hrs,[3]; Bleomycin + PO 100 mg/kg,34.4 µg·h/g
same,Lung Tissue Cmax,[3]; Bleomycin + PO 100 mg/kg,33.6 µg/g
same,"anti-fibrotic efficacy, direct lung delivery versus oral",[3]; intratracheal aerosol versus oral gavage,more efficacious (less fibrosis and less hydroxyproline)
same,T1/2 beta,"[4]; lung tissue (derived solely from plasma T1/2), aerosol 110 mg RDD, 2009 fasted-state",2.5 h
same,T1/2 beta,"[4]; lung tissue (derived solely from plasma T1/2), aerosol 154 mg RDD, 2009 fasted-state",2.5 h
same,T1/2 beta,"[4]; lung tissue (derived solely from plasma T1/2), aerosol 185 mg RDD, 2009 fasted-state",2.5 h
same,T1/2 beta,"[4]; lung tissue (derived solely from plasma T1/2), oral 801 mg, fasted-state, 2009",2.5 h
same,T1/2 beta,"[4]; lung tissue (derived solely from plasma T1/2), oral 801 mg, fed-state, 2009",2.4 h
same,T1/2 beta,"[4]; plasma, aerosol 110 mg RDD, 2009 fasted-state",2.5 h
same,T1/2 beta,"[4]; plasma, aerosol 154 mg RDD, 2009 fasted-state",2.5 h
same,T1/2 beta,"[4]; plasma, aerosol 185 mg RDD, 2009 fasted-state",2.5 h
same,T1/2 beta,"[4]; plasma, oral 801 mg, fasted-state, 2009",2.5 h
same,T1/2 beta,"[4]; plasma, oral 801 mg, fed-state, 2009",2.4 h
same,share of pirfenidone metabolised via the enzyme,CYP1A2,approximately 48%
same,lung tissue level after subtracting blood contribution,[5],about 8 mcg/g
